This test concerns CD2F1 mice, L1210 leukemia ip, survival T/C. Nature of the test: NCI In Vivo Anticancer Drug Screen. Data for tumor model L1210 Leukemia (intraperitoneal) in CD2F1 (CDF1) mice. The settings on record: endpoint: mean survival time, higher = longer survival. Put shortly:
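Antitumor effect is scored in animals hosting a serially transplanted tumor. Values compare compound-dosed animals against vehicle-only controls as a simple quotient.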

[1] abbreviates: dose: 100.0 mg/kg/injection, schedule: Q01DX009 (ip), vehicle: saline with Tween-80.
Setting [2] is: dose: 100.0 mg/kg/injection, schedule: Q04DX003 (ip), vehicle: saline with Tween-80.
Where [3] appears, read: dose: 200.0 mg/kg/injection, schedule: Q04DX003 (ip), vehicle: saline with Tween-80.
[4] abbreviates: dose: 400.0 mg/kg/injection, schedule: Q04DX003 (ip), vehicle: saline with Tween-80.
Setting [5] is: dose: 100.0 mg/kg/injection, schedule: Q01DX009 (ip), vehicle: saline.
Setting [6] is: dose: 100.0 mg/kg/injection, schedule: Q04DX003 (ip), vehicle: saline.
The mark [7] stands for this setting: dose: 200.0 mg/kg/injection, schedule: Q01DX009 (ip), vehicle: saline.
Where [8] appears, read: dose: 400.0 mg/kg/injection, schedule: Q01DX009 (ip), vehicle: saline.
Where [9] appears, read: dose: 400.0 mg/kg/injection, schedule: Q04DX003 (ip), vehicle: saline.
Setting [10] is: dose: 50.0 mg/kg/injection, schedule: Q01DX009 (ip), vehicle: saline with Tween-80.
The mark [11] stands for this setting: dose: 200.0 mg/kg/injection, schedule: Q01DX009 (ip), vehicle: saline with Tween-80.
Setting [12] is: dose: 400.0 mg/kg/injection, schedule: Q01DX009 (ip), vehicle: saline with Tween-80.

The structures appear in SMILES notation. Values joined by “and” are separate entries in the source; they are usually repeats but may differ in a detail not shown here. Equal values may be shown once. Toxic doses and inconclusive results are not listed.

Consider `Nc1ncnc2c1c1c(N)[nH]c(=O)nc1n2C1OC(CO)C(O)C1O` (configuration not stated), for which the T/C was 106 % of control (dose: 12.5 mg/kg/injection, schedule: Q01DX005 (ip), vehicle: water); 104 % of control (dose: 25.0 mg/kg/injection, schedule: Q01DX005 (ip), vehicle: water); 97 % of control (dose: 50.0 mg/kg/injection, schedule: Q01DX005 (ip), vehicle: water); 104 % of control (dose: 100.0 mg/kg/injection, schedule: Q01DX005 (ip), vehicle: water); 121 % of control (dose: 200.0 mg/kg/injection, schedule: Q01DX005 (ip), vehicle: water).

For `CC(=O)OC1CC2CC(C1C)C2(C)C` (configuration not stated), the T/C under setting [1] is 91 % of control, the T/C under setting [2] was 90 % of control, the T/C under setting [3] is 88 % of control and the T/C under setting [4] is 88 % of control.

With `CCOC(=O)CC(=O)N(CC)CC`, the T/C runs as follows: under setting [5], 98 % of control; under setting [6], 99 % of control; under setting [7], 93 % of control; (dose: 200.0 mg/kg/injection, schedule: Q04DX003 (ip), vehicle: saline) 95 % of control; under setting [8], 96 % of control; under setting [9], 108 % of control.

As to `C#CCOC1CCCC1O` (configuration not stated), the T/C (dose: 100.0 mg/kg/injection, schedule: Q04DX003 (ip), vehicle: acetone) was 101 % of control.

Consider `CCCCN(CCCC)CCNc1ccc(C)c2sc3ccccc3c(=O)c12`, for which the T/C is, setting by setting: (dose: 50.0 mg/kg/injection, schedule: Q01DX001 (ip), vehicle: saline) 91 % of control; (dose: 100.0 mg/kg/injection, schedule: Q01DX001 (ip), vehicle: saline) 88 % of control; under setting [5], 101 % of control; under setting [6], 91 % of control; (dose: 200.0 mg/kg/injection, schedule: Q01DX001 (ip), vehicle: saline) 91 % of control; under setting [7], 91 % of control. The T/C reads like this: (dose: 400.0 mg/kg/injection, schedule: Q01DX001 (ip), vehicle: saline) 88 % of control; under setting [8], 94 % of control; under setting [9], 87 % of control.

As to `O=C(Nc1c(Cl)cccc1Cl)OCCOc1ccc(Cl)cc1`, the T/C is 94 % of control under setting [10], 105 % of control under setting [1] and 105 % of control under setting [11].

For the compound `CN(Cc1cnc2nc(N)nc(N)c2n1)c1ccc(C(=O)NC(CCC(N)=O)C(=O)O)cc1` (configuration not stated), the T/C runs as follows: (dose: 1.0 mg/kg/injection, schedule: Q01DX009 (ip), vehicle: sodium bicarbonate) 102 % of control; (dose: 10.0 mg/kg/injection, schedule: Q01DX009 (ip), vehicle: sodium bicarbonate) 118 % of control; (dose: 50.0 mg/kg/injection, schedule: Q01DX009 (ip), vehicle: sodium bicarbonate) 150 % of control; (dose: 180.0 mg/kg/injection, schedule: Q04DX003 (ip), vehicle: sodium bicarbonate) 158 % of control; (dose: 268.0 mg/kg/injection, schedule: Q04DX003 (ip), vehicle: sodium bicarbonate) 114 % of control; (dose: 400.0 mg/kg/injection, schedule: Q04DX003 (ip), vehicle: sodium bicarbonate) 110 % of control.

As for `CC1(C)OCC2OC3(CO)NP(=O)(N(CCCl)CCCl)OC3C2O1` (configuration not stated), the T/C is, setting by setting: (dose: 62.5 mg/kg/injection, schedule: Q01DX001 (ip), vehicle: distilled water + Tween-80) 102 % of control; (dose: 125.0 mg/kg/injection, schedule: Q01DX001 (ip), vehicle: distilled water + Tween-80) 101 % of control; (dose: 250.0 mg/kg/injection, schedule: Q01DX001 (ip), vehicle: distilled water + Tween-80) 93 % of control.

Turning to `CCCCCCOc1ccc(C=Nc2ccc(CC)cc2)cc1`, the T/C runs as follows: under setting [2], 88 % of control; under setting [3], 91 % of control; under setting [4], 88 % of control.

For `COc1ccccc1N1CCCSC1=Nc1ccccc1`, the T/C is 98 % of control (dose: 100.0 mg/kg/injection, schedule: Q04DX002 (ip), vehicle: saline) and 94 % of control (dose: 200.0 mg/kg/injection, schedule: Q04DX002 (ip), vehicle: saline).

On to `Nc1nc(Br)c2ccccc2c1-c1ccc([N+](=O)[O-])cc1`, for which the T/C is, setting by setting: (dose: 50.0 mg/kg/injection, schedule: Q04DX003 (ip), vehicle: DMSO) 98 % of control; (dose: 100.0 mg/kg/injection, schedule: Q04DX003 (ip), vehicle: DMSO) 96 % of control; (dose: 200.0 mg/kg/injection, schedule: Q04DX003 (ip), vehicle: DMSO) 95 % of control; (dose: 400.0 mg/kg/injection, schedule: Q04DX003 (ip), vehicle: DMSO) 95 % of control.

Consider `O=C(O)CCCC(=O)c1ccccc1`, for which the T/C is 91 % of control (dose: 50.0 mg/kg/injection, schedule: Q01DX009 (ip), vehicle: Klucel (hydroxypropylcellulose) (HPC)); 91 % of control (dose: 100.0 mg/kg/injection, schedule: Q01DX009 (ip), vehicle: Klucel (hydroxypropylcellulose) (HPC)); 95 % of control (dose: 200.0 mg/kg/injection, schedule: Q01DX009 (ip), vehicle: Klucel (hydroxypropylcellulose) (HPC)).

As to `Nc1nc2nc(CBr)c(CBr)nc2c(=O)[nH]1`, under setting [11], the T/C was 101 % of control.

In the case of `N#Cc1ccc(NCCO)cc1`, the T/C runs as follows: under setting [2], 89 % of control; under setting [3], 101 % of control; under setting [4], 91 % of control.

`CCCCCCCCCCCCCCCCCC[N+]1(C)CCC[N+](C)(CCCCCCCCCCCCCCCCCC)CC1` (configuration not stated): the T/C is 98 % of control and 100 % of control (dose: 100.0 mg/kg/injection, schedule: Q04DX002 (ip), vehicle: saline with Tween-80); 86 % of control and 108 % of control under setting [2]; 92 % of control and 100 % of control (dose: 200.0 mg/kg/injection, schedule: Q04DX002 (ip), vehicle: saline with Tween-80); 90 % of control and 104 % of control under setting [3]; 87 % of control and 92 % of control (dose: 400.0 mg/kg/injection, schedule: Q04DX002 (ip), vehicle: saline with Tween-80); 88 % of control under setting [4].

With `O=C(Nc1cc(C(F)(F)F)ccc1Cl)c1cccc(Cl)c1`, the T/C is, setting by setting: under setting [1], 95 % of control; under setting [2], 102 % of control; under setting [11], 98 % of control; under setting [3], 93 % of control; under setting [12], 98 % of control; under setting [4], 94 % of control.

For the compound `O=S1(=O)CCS(=O)(=O)C1`, the T/C runs as follows: (dose: 50.0 mg/kg/injection, schedule: Q01DX001 (ip), vehicle: saline with Tween-80) 104 % of control; (dose: 100.0 mg/kg/injection, schedule: Q01DX001 (ip), vehicle: saline with Tween-80) 98 % of control; (dose: 200.0 mg/kg/injection, schedule: Q01DX001 (ip), vehicle: saline with Tween-80) 95 % of control.

For `O=C(C1=C/C(=C\c2ccccc2)CCC1)c1ccccc1`, the T/C by setting is: under setting [1], 98 % of control; under setting [2], 104 % of control; under setting [11], 94 % of control; under setting [3], 100 % of control; under setting [12], 88 % of control; under setting [4], 102 % of control.

Take `N#CC1C=Cc2ccccc2N1C(=O)Oc1ccccc1` (configuration not stated): the T/C under setting [5] was 95 % of control, the T/C under setting [7] is 93 % of control and the T/C under setting [8] was 89 % of control.

In the case of `CN1C(=O)C(=Cc2ccc(O)cc2)C(=O)N(C)C1=O`, the T/C is, setting by setting: (dose: 12.5 mg/kg/injection, schedule: Q01DX009 (ip), vehicle: saline with Tween-80) 96 % of control and 100 % of control; (dose: 25.0 mg/kg/injection, schedule: Q01DX009 (ip), vehicle: saline with Tween-80) 102 % of control and 107 % of control; under setting [10], 100 % of control and 108 % of control; under setting [1], 104 % of control and 111 % of control; under setting [11], 102 % of control and 106 % of control; under setting [12], 106 % of control and 111 % of control.

For the compound `CCOC(=O)Cn1c(=O)cc(C)c2ccccc21`, the T/C runs as follows: under setting [2], 100 % of control; under setting [3], 101 % of control; under setting [4], 101 % of control.

With `N#CC1CC2C=CC1C2` (configuration not stated), the T/C (dose: 5.0 mg/kg/injection, schedule: Q01DX009 (ip), vehicle: saline) was 98 % of control; the T/C (dose: 5.0 mg/kg/injection, schedule: Q04DX003 (ip), vehicle: saline) was 95 % of control; the T/C (dose: 10.0 mg/kg/injection, schedule: Q01DX009 (ip), vehicle: saline) was 98 % of control; the T/C (dose: 10.0 mg/kg/injection, schedule: Q04DX003 (ip), vehicle: saline) is 97 % of control; the T/C (dose: 20.0 mg/kg/injection, schedule: Q01DX009 (ip), vehicle: saline) is 87 % of control; the T/C (dose: 20.0 mg/kg/injection, schedule: Q04DX003 (ip), vehicle: saline) was 100 % of control.
